Experimental data taken from patent EP0989125B1, “Pesticidal furylmethyl cyclopropanecarboxylates” (Sumitomo Chemical Company, Limited, priority 1998, dated 2000).

How the values were obtained:
[1] = tested on: tobacco cutworm (Spodoptera litura); assay: Biological test 1: artificial bait impregnated with emulsion; conditions: Spodoptera litura, in Nicotiana tabacum, 144 h
[2] = tested on: southern corn rootworm (Diabrotica undecimpunctata howardi); assay: Biological test 3: treated filter paper with eggs and sprouting corn; conditions: Diabrotica undecimpunctata, in Zea mays, 192 h, read-out: mortality of the hatched larvae and eggs
[3] = tested on: houseflies (Musca domestica); assay: Biological test 10: vapour exposure over treated aluminum plate, houseflies; type: in vivo; conditions: 0.64 ml of 0.05 (w/v) % acetone solution, no direct contact, 25 °C for 120 minutes, after 24 hours
Method: (§1) After 0.64 ml of a 0.05 (w/v) % acetone solution of the present compounds was dropped into an aluminum plate (bottom diameter : 7 cm), acetone was air-dried. Ten female houseflies (Musca domestica) were left in a polyethylene cup (diameter : 9 cm; depth : 4.5 cm) and the cup was sealed with a 16-mesh nylon net to prevent direct contact of the houseflies with the compound. The cup was placed upside down on the aluminum plate at 25 °C for 120 minutes. The cup was then removed from the aluminum plate, and water and feed were given to the houseflies. After 24 hours, the percent moribund was examined (two replicate).

[4] = tested on: brown planthopper (Nilaparvata lugens); assay: Biological test 2: rice plant stalk dipped in emulsion; type: in vivo; conditions: Nilaparvata lugens, 144 h; 500 ppm aqueous emulsion, larvae, after 6 days
Method: A stalk of a rice plant was dipped for one minute in a 500 ppm aqueous emulsion obtained by diluting each emulsifiable concentrate of the present compounds prepared according to the formulation example 1. The rice plant stalk was air-dried and placed in a polyethylene cup (diameter : 5.5 cm) where filter paper (diameter : 5.5 cm) impregnated with 1 ml of water was put. Approximately 30 larvae of brown planthopper (Nilaparvata lugens) were put in the polyethylene cup. After 6 days, the mortality of the larvae was examined.

[5] = tested on: houseflies (Musca domestica); assay: Biological test 9: topical application of acetone solution to houseflies; type: in vivo; conditions: 5 µg / one housefly, after 24 hours
Method: After 24 hours, the percent moribund was examined (two replicate).

[6] = tested on: common mosquitoes (Culex pipiens pallens); assay: Biological test 8: mosquito-coil in glass chamber, knock-down; type: in vivo; conditions: 1.0 g of 0.3 % mosquito-coil, 0.34 m^3 chamber, after 15 minutes
Method: Mosquito-coil containing the present compound in an amount of 0.3 % was prepared according to the formulation example 10 for the present compounds. Ten female common mosquitoes (Culex pipiens pallens) were left in a glass chamber (70 cm × 70 cm × 70 cm : 0.34 m^3) and 1.0 g of 0.3 % mosquito-coil having both ends lit was placed in the glass chamber. After 15 minutes, the rate of knocked-down mosquitoes was examined.

[7] = tested on: common mosquitoes (Culex pipiens pallens); assay: Biological test 11: vapour exposure over treated aluminum plate, mosquitoes; type: in vivo; conditions: Culex pipiens, 24 h
Method: as §1, with “common mosquitoes (Culex pipiens pallens)” for “houseflies (Musca domestica)”, “mosquitoes” for “houseflies”, “mosquitoes.” for “houseflies.”, “mortality” for “percent moribund”

[8] = tested on: webbing clothes moth (Tineola bisselliella); assay: Biological test 14: persistence of treated filter paper in cardboard box, webbing clothes moth larvae; type: in vivo; set-up: key to degree of damage: -: no damage; +: slight damage; ++: heavy damage; +++: severe damage; conditions: 36 mg on filter paper
Method: A filter paper (3.2 cm × 3.2 cm in size) treated with 36 mg of each of the present compounds and two wool muslin fabrics (25 cm × 25 cm in size) were hung down at the upper part of a corrugated cardboard box (29 cm × 29 cm × 29 cm in size). After standing at 25 °C and a humidity of 60 % for 1 week, two tea-strainer balls holding 7 to 10 middle instar larvae of webbing clothes moth (Tineola bisselliella) and one piece of wool muslin cloth (2 cm × 2 cm in size) were hung down at the upper part of the box. The box was closed with a lid. After one week, the box was opened, and the percent moribund and the degree of damage of the wool muslin cloth by the moths were examined. The same tests was repeated 2 weeks, 3 weeks and 5 weeks after the treatment to examine the persistance of the present compound. The degree of damage was represented by "-" in no damage, " + " in slight damage, " ++ " in heavy damage and "+++ " in severe damage.

[9] = tested on: common mosquitoes (Culex pipiens pallens); assay: Biological test 6: mosquito larvae in treated water; type: in vivo; conditions: Culex pipiens, 24 h; 3.5 ppm active ingredient in water, last-instar larvae, after one day
Method: 0.7 ml of aqueous emulsion, obtained by diluting emulsifiable concentrate prepared for each of the present compounds according to the formulation example 1 was added to 100 ml of ion-exchanged water (concentration of active ingredient : 3.5 ppm). Twenty last-instar larvae of common mosquitoes (Culex pipiens pallens) were left in the water. After one day, the mortality of the common mosquitoes was examined.

[10] = tested on: common mosquitoes (Culex pipiens pallens); assay: Biological test 7: oil solution sprayed in glass chamber, knock-down; type: in vivo; conditions: 0.7 ml of 0.1 % oil solution sprayed, 0.34 m^3 chamber, after 15 minutes
Method: Ten female common mosquitoes (Culex pipiens pallens) were left in a glass chamber (70 cm × 70 cm × 70 cm : 0.34 m^3). 0.7 ml of 0.1 % oil solution prepared for each of the present compounds according to the formulation example 7 was sprayed with a spray gun at 0.8 atmospheric pressure. After 15 minutes, the rate of knocked-down mosquitoes was examined.

rats = conditions: male 7-week old rats, into the stomach in corn oil, after 7 days
Method: After subjecting the rats to a twenty-hour fasting, 0.1 ml of the diluted solution per 10g weight was forcibly applied into the stomach of four male 7-week old rats. The rats were given food and water four hours after the application and thereafter regularly fed and watered, and kept in a cage. After 7 days, the mortality was examined for the rats and LD50 was calculated.

[11] = tested on: webbing clothes moth (Tineola bisselliella); assay: Biological test 13: volatile agent hung in cup with webbing clothes moth larvae; type: in vivo; conditions: volatile agent (100 µg on filter paper), 25 °C for 1 week
Method: A wool muslin fabric (2 cm × 2 cm in size) was placed on the bottom of a polyethylene cup (bottom diameter : 10 cm, opening part diameter : 12.5 cm, height : 9.5 cm, volume : 950 cm^3 ). Ten middle instar larvae of webbing clothes moth (Tineola bisselliella) were put in the cup and each of the volatile agents prepared according to the formulation example 14 was hung from the cap in the interior of the cup. After standing at 25 °C for 1 week, the cup was opened, and the mortality and the degree of damage of the wool muslin fabric by the moths were examined (two replicate).

[12] = tested on: webbing clothes moth (Tineola bisselliella); assay: Biological test 12: topical application to webbing clothes moth larvae; type: in vivo; conditions: 3 µg / insect, after 7 days
Method: Each of the present compounds diluted with acetone to a predetermined concentration was applied to ten middle instar larvae of webbing clothes moth (Tineola bisselliella) at the central part of the back so as to give the active ingredient in a dose of 3 µg / insect. A wool muslin fabric (2 cm × 2 cm in size) was given to the webbing clothes moths as the food. After 7 days, the mortality and the degree of damage of the wool muslin fabric by the moths were examined (two replicate).

[13] = tested on: German cockroaches (Blattella germanica); assay: Biological test 5: treated filter paper with sucrose bait, cockroaches low sensitive to pyrethroids; conditions: Blattella germanica, 144 h

Cc1ccc(COC(=O)[C@@H]2[C@H](/C=C(\Cl)C(F)(F)F)C2(C)C)o1 (racemic) [present compound (1), 5-methyl-2-furfuryl (1RS,cis)-3-(Z-2-chloro-3,3,3-trifluoroprop-1-enyl)-2,2-dimethylcyclopropanecarboxylate]
no damage: degree of damage of the wool muslin fabric [11] | degree of damage of the wool muslin fabric [12]
100%: mortality at 500 µg/mL [1] | mortality at 50 ppm [2] | percent moribund [3] | percent moribund [5] | rate of knocked-down mosquitoes [6] | mortality at 500 µg/mL [7] | percent moribund ([8]; After 1 week) | percent moribund ([8]; After 2 weeks) | percent moribund ([8]; After 3 weeks) | percent moribund ([8]; After 5 weeks) | mortality at 0.1 mg ([11]; Tineola bisselliella, 168 h) | mortality at 0.003 mg ([12]; Tineola bisselliella, 168 h) | mortality at 500 ppm [13]
-: degree of damage ([8]; After 1 week) | degree of damage ([8]; After 2 weeks) | degree of damage ([8]; After 3 weeks) | degree of damage ([8]; After 5 weeks)
300 mg/kg: LD50 (rats)
≥ 90%: mortality at 500 ppm [4] | mortality at 3.5 ppm [9] | rate of knocked-down mosquitoes [10]
